Measured values as given in US8822510B2, “Substituted 3-phenyl-1,2,4-Oxadiazole compounds” (Bristol-Myers Squibb Company, priority 2010, dated 2014).

How the values were obtained:
circulating lymphocytes = assay: Blood Lymphocyte Reduction Assay (BLR) in Rodents; type: in vivo; conditions: Lewis rats, oral, vs vehicle group
Procedure: Lewis rats were dosed orally with test article (as a solution or suspension in the vehicle) or vehicle alone (polyethylene glycol 300, “PEG300”). Blood was drawn at 4 hr and 24 h by retro-orbital bleeding. Blood lymphocyte counts were determined on an ADVIA 120 Hematology Analyzer (Siemens Healthcare Diagnostics). The results were measured as a reduction in the percentage of circulating lymphocytes as compared to the vehicle treated group at the 4 hr and 24 hr measurement. The results represent the average results of all animals within each treatment group (n=3-4).
The following examples were tested in the Blood Lymphocyte Reduction assay (BLR) described hereinabove and the results are shown in Table C for rats.

S1P1 [1] = target: T1, S1P1 (Homo sapiens (Human), UniProt P21453); assay: S1P1 Binding Assay; conditions: 33P-S1P ligand, membranes from CHO cells expressing human S1P1
Procedure: Membranes were prepared from CHO cells expressing human S1P1. Cells pellets (1×10^8 cells/pellet) were suspended in buffer containing 20 mM HEPES, pH 7.5, 50 mM NaCl, 2 mM EDTA and Protease Inhibitor cocktail (Roche), and disrupted on ice using the Polytron homogenizer. The homogenate was centrifuged at 20,000 rpm (48,000 g) and the supernatant was discarded. The membrane pellets were resuspended in buffer containing 50 mM HEPES, pH 7.5, 100 mM NaCl, 1 mM MgCl2, 2 mM EDTA and stored in aliquots at […] after protein concentration determination.
Membranes (2 μg/well) and 0.03 nM final concentration of 33P-S1P ligand (1 mCi/ml, American Radiolabeled Chemicals) diluted in assay buffer (50 mM HEPES, pH7.4, 5 mM MgCl2, 1 mM CaCl2, 0.5% fatty acid free BSA, 1 mM NaF) were added to the compound plates (384 Falcon v-bottom plate (0.5 μl/well in a 11 point, 3-fold dilution). Binding was performed for 45 minutes at room temperature, terminated by collecting the membranes onto 384-well Millipore FB filter plates, and radioactivity was measured by TOPCOUNT®. The competition data of the test compounds over a range of concentrations was plotted as percentage inhibition of radioligand specific binding. The IC50 is defined as the concentration of competing ligand needed to reduce specific binding by 50%.
Table A below lists S1P1 Binding IC50 values from the following examples of this invention measured in the S1P1 binding assay described hereinabove. The results in Table A were rounded to two digits.

S1P1 [2] = target: T1, S1P1; assay: Receptor [35S] GTPγS Binding Assay, S1P1; type: biochemical; conditions: membranes from S1P1/CHO cells
Procedure: Membranes prepared from S1P1/CHO cells or EDG3-Ga15-b1a HEK293T cells were added to the compound plate (40 μl/well, final protein 3 μg/well) with MULTIDROP®. [^35S] GTP (1250 Ci/mmol, Perkin Elmer) was diluted in assay buffer: 20 mM HEPES, pH7.5, 10 mM MgCl2, 150 mM NaCl, 1 mM EGTA, 1 mM DTT, 10 μM GDP, 0.1% fatty acid free BSA, and 10 μg/ml Saponin to 0.4 nM. 40 μl of the [^35S] GTP solution was added to the compound plate with a final concentration of 0.2 nM. The reaction was kept at room temperature for 45 min. At the end of incubation, all the mixtures in the compound plate were transferred to Millipore 384-well FB filter plates via the VELOCITY 11® Vprep liquid handler. The filter plate was washed with water 4 times by using the manifold Embla plate washer and dried at 60° C. for 45 min. MicroScint 20 scintillation fluid (30 μl) was added to each well for counting on the Packard TOPCOUNT®. […] The results in Table B were rounded to two digits. […]

S1P3 = S1P3 (Homo sapiens (Human), UniProt Q99500); assay: Receptor [35S] GTPγS Binding Assay, S1P3; type: biochemical; conditions: membranes from EDG3-Ga15-b1a HEK293T cells
Procedure: Compounds were loaded in a 384 Falcon v-bottom plate (0.5 μl/well in a 11 point, 3-fold dilution). Membranes prepared from S1P1/CHO cells or EDG3-Ga15-b1a HEK293T cells were added to the compound plate (40 μl/well, final protein 3 μg/well) with MULTIDROP®. [^35S] GTP (1250 Ci/mmol, Perkin Elmer) was diluted in assay buffer: 20 mM HEPES, pH7.5, 10 mM MgCl2, 150 mM NaCl, 1 mM EGTA, 1 mM DTT, 10 μM GDP, 0.1% fatty acid free BSA, and 10 μg/ml Saponin to 0.4 nM. 40 μl of the [^35S] GTP solution was added to the compound plate with a final concentration of 0.2 nM. The reaction was kept at room temperature for 45 min. At the end of incubation, all the mixtures in the compound plate were transferred to Millipore 384-well FB filter plates via the VELOCITY 11® Vprep liquid handler. The filter plate was washed with water 4 times by using the manifold Embla plate washer and dried at 60° C. for 45 min. MicroScint 20 scintillation fluid (30 μl) was added to each well for counting on the Packard TOPCOUNT®. EC50 is defined as the agonist concentration that corresponds to 50% of the Ymax (maximal response) obtained for each individual compound tested. The results in Table B were rounded to two digits.
A smaller value for GTPγS S1P1 EC50 value indicated greater activity for the compound in the GTPγS S1P1 binding assay. A larger value for the GTPγS S1P3 EC50 value indicated less activity in the GTPγS S1P3 binding assay.

T1 sequence (P21453 whole entry): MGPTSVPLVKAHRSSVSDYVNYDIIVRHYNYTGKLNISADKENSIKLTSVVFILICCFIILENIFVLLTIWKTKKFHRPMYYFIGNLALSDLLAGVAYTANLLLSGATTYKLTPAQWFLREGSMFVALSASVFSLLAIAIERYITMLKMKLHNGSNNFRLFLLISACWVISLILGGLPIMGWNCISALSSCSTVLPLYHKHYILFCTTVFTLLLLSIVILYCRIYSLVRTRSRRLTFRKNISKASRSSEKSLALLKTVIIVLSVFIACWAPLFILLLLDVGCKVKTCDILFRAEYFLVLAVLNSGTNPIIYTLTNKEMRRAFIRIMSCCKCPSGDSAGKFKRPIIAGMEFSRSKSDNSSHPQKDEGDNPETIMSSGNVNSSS
S1P3, sequence (Q99500 whole entry): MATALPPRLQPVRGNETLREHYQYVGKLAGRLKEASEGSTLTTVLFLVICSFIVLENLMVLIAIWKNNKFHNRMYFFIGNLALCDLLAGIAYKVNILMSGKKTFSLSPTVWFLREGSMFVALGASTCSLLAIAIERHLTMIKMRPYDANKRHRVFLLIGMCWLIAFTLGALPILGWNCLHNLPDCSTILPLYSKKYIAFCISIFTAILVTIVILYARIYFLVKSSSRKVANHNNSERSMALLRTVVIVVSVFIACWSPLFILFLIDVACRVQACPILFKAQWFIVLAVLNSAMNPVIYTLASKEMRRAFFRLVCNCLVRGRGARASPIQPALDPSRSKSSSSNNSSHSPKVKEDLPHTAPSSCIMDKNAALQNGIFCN

`O=C(O)C1CN(Cc2ccc(-c3noc(CCC4(c5ccccc5)CCCCC4)n3)cc2)C1` [Example 1, 1-(4-(5-(2-(1-phenylcyclohexyl)ethyl)-1,2,4-oxadiazol-3-yl)benzyl)azetidine-3-carboxylic acid] was tested, and the “% REDUCTION IN LYMPHOCYTES AT 4 HR.” value (circulating lymphocytes; 1.0 mg/kg) was 75%.

With `Cc1cc(-c2noc(CCC3(c4ccc(F)cc4)CCCCC3)n2)cc(C)c1OC[C@@H](O)CO` [Example 4] the IC50 (S1P1 [1]) was 0.12 nM, the EC50 (S1P1 [2]) was 0.51 nM and the EC50 (S1P3) was 10.2 nM.

`O=C(O)C1CN(Cc2ccc(-c3noc(CCCC4(c5ccc(F)cc5)CCCCC4)n3)cc2)C1` [Example 9, 1-(4-(5-(3-(1-(4-fluorophenyl)cyclohexyl)propyl)-1,2,4-oxadiazol-3-yl)benzyl)azetidine-3-carboxylic acid] showed an IC50 (S1P1 [1]) of 0.47 nM, an EC50 (S1P1 [2]) of 0.23 nM and an EC50 (S1P3) of 16.4 nM.

`O=C(O)C1CN(Cc2ccc(-c3noc(CCCC4(c5ccccc5)CCCCC4=O)n3)cc2)C1` (stereo not drawn) [Example 11, 1-(4-(5-(3-(2-oxo-1-phenylcyclohexyl)propyl)-1,2,4-oxadiazol-3-yl)benzyl)azetidine-3-carboxylic acid] was tested, and the IC50 (S1P1 [1]) was 1.68 nM, the EC50 (S1P1 [2]) was 2.17 nM and the EC50 (S1P3) was 58.6 nM.

`O=C(O)C1CN(Cc2ccc(-c3noc(COCC4(c5ccc(F)cc5)CCCCC4)n3)cc2)C1` [Example 18, 1-(4-(5-(((1-(4-fluorophenyl)cyclohexyl)methoxy)methyl)-1,2,4-oxadiazol-3-yl)benzyl)azetidine-3-carboxylic acid] was tested, and the IC50 (S1P1 [1]) was 0.31 nM, the EC50 (S1P1 [2]) was 0.78 nM and the EC50 (S1P3) was 9.23 nM.

`O=C1NC(=O)C2(CN(Cc3ccc(-c4noc(COCC5(c6ccc(Cl)cc6)CCC5)n4)cc3)C2)N1` [Example 19, 2-(4-(5-(((1-(4-chlorophenyl)cyclobutyl)methoxy)methyl)-1,2,4-oxadiazol-3-yl)benzyl)-2,5,7-triazaspiro[3.4]octane-6,8-dione] showed an IC50 (S1P1 [1]) of 477 nM, an EC50 (S1P1 [2]) of 1270 nM and an EC50 (S1P3) of 5380 nM.

`Cc1cc(-c2noc(/C(F)=C/C3(c4ccc(Cl)cc4)CC3)n2)cc(C)c1OC[C@@H](O)CO` [Example 48, (2S)-3-(4-(5-((Z)-2-(1-(4-chlorophenyl)cyclopropyl)-1-fluorovinyl)-1,2,4-oxadiazol-3-yl)-2,6-dimethylphenoxy)-1,2-propanediol] was tested, and the “% REDUCTION IN LYMPHOCYTES AT 4 HR.” value (circulating lymphocytes; 10.0 mg/kg) was 83%.

`Cc1cc(-c2noc(/C=C/C3(c4ccc(Cl)cc4)CCCCC3)n2)cc(C)c1OC[C@@H](O)CO` [Example 52, (2S)-3-(4-(5-((E)-2-(1-(4-chlorophenyl)cyclohexyl)vinyl)-1,2,4-oxadiazol-3-yl)-2,6-dimethylphenoxy)-1,2-propanediol] showed an IC50 (S1P1 [1]) of 5.75 nM, an EC50 (S1P1 [2]) of 8.1 nM and an EC50 (S1P3) of 139 nM.

Compound `O=C(O)C1CN(Cc2ccc(-c3noc(CCC4(c5ccc(F)cc5)CCCCC4)n3)cc2)C1` [Example 63, 1-(4-(5-(2-(1-(4-fluorophenyl)cyclohexyl)ethyl)-1,2,4-oxadiazol-3-yl)benzyl)-3-azetidinecarboxylic acid] has an IC50 (S1P1 [1]) of 0.21 nM, an EC50 (S1P1 [2]) of 2.74 nM and an EC50 (S1P3) of 4.94 nM.

Work on `O=C(O)C1CN(Cc2ccc(-c3noc(C(F)(F)C(O)C4(c5ccc(Cl)cc5)CC4)n3)cc2)C1` (stereo not drawn) [Example 85, 1-(4-(5-(2-(1-(4-chlorophenyl)cyclopropyl)-1,1-difluoro-2-hydroxyethyl)-1,2,4-oxadiazol-3-yl)benzyl)-3-azetidinecarboxylic acid] yielded an IC50 (S1P1 [1]) of 135 nM, an EC50 (S1P1 [2]) of 700 nM and an EC50 (S1P3) of over 62500 nM.

With `O=C(O)C1CN(Cc2ccc(-c3noc(/C=C/C4(c5ccc(C(F)(F)F)cc5)CCCCC4)n3)cc2)C1` [Example 88, 1-(4-(5-((E)-2-(1-(4-(trifluoromethyl)phenyl)cyclohexyl)vinyl)-1,2,4-oxadiazol-3-yl)benzyl)-3-azetidinecarboxylic acid] the IC50 (S1P1 [1]) was 26.7 nM.

In the case of `O=C(O)C1CN(Cc2ccc(-c3noc(/C=C/C4(c5cccc(Cl)c5)CCCCC4)n3)cc2)C1` [Example 90, 1-(4-(5-((E)-2-(1-(3-chlorophenyl)cyclohexyl)vinyl)-1,2,4-oxadiazol-3-yl)benzyl)-3-azetidinecarboxylic acid], the “% REDUCTION IN LYMPHOCYTES AT 4 HR.” value (circulating lymphocytes; 5.0 mg/kg) is reported as 85%.

`O=C(O)C1CN(Cc2ccc(-c3noc(/C=C/C4(c5ccc(Cl)cc5)CCCCC4)n3)cc2)C1` [Example 92, 1-(4-(5-((E)-2-(1-(4-chlorophenyl)cyclohexyl)vinyl)-1,2,4-oxadiazol-3-yl)benzyl)-3-azetidinecarboxylic acid] gave an IC50 (S1P1 [1]) of 45.6 nM, an EC50 (S1P1 [2]) of 36.9 nM and an EC50 (S1P3) of 421 nM.

`O=C(O)C1CN(Cc2ccc(-c3noc(CCCC4(c5ccc(Cl)cc5)CCCCC4)n3)cc2)C1` [Example 98, 1-(4-(5-(3-(1-(4-chlorophenyl)cyclohexyl)propyl)-1,2,4-oxadiazol-3-yl)benzyl)-3-azetidinecarboxylic acid] gave an IC50 (S1P1 [1]) of 0.54 nM, an EC50 (S1P1 [2]) of 0.7 nM and an EC50 (S1P3) of 27.4 nM.

`O=C(O)C1CN(Cc2ccc(-c3noc(C/C=C/C4(c5ccc(F)cc5)CCCCC4)n3)cc2)C1` [Example 100, 1-(4-(5-((2E)-3-(1-(4-fluorophenyl)cyclohexyl)-2-propen-1-yl)-1,2,4-oxadiazol-3-yl)benzyl)-3-azetidinecarboxylic acid] showed an IC50 (S1P1 [1]) of 3.4 nM, an EC50 (S1P1 [2]) of 0.41 nM and an EC50 (S1P3) of 11.7 nM.

Work on `O=C(O)C1CN(Cc2ccc(-c3noc(/C=C/C4(Cc5ccccc5)CCC4)n3)cc2)C1` [Example 103, 1-(4-(5-((E)-2-(1-benzylcyclobutyl)vinyl)-1,2,4-oxadiazol-3-yl)benzyl)-3-azetidinecarboxylic acid] yielded an EC50 (S1P1 [2]) of 17.1 nM and an EC50 (S1P3) of 1490 nM.

In the case of `O=C(O)C1CN(Cc2ccc(-c3noc(CCC4(c5cccnc5)CCOCC4)n3)cc2)C1` [Example 108, 1-(4-(5-(2-(4-(3-pyridinyl)tetrahydro-2H-pyran-4-yl)ethyl)-1,2,4-oxadiazol-3-yl)benzyl)-3-azetidinecarboxylic acid], the IC50 (S1P1 [1]) is reported as 861 nM, the EC50 (S1P1 [2]) is reported as 7360 nM and the EC50 (S1P3) is reported as over 62500 nM.

`O=C(O)C1CN(Cc2ccc(-c3noc(COCC4(c5ccc(Cl)cc5)CCC4)n3)c(Cl)c2)C1` [Example 141, 1-(3-chloro-4-(5-(((1-(4-chlorophenyl)cyclobutyl)methoxy)methyl)-1,2,4-oxadiazol-3-yl)benzyl)-3-azetidinecarboxylic acid] showed an IC50 (S1P1 [1]) of 12 nM, an EC50 (S1P1 [2]) of 50.7 nM and an EC50 (S1P3) of 5240 nM.

Compound `O=C(O)C1CN(Cc2ccc(-c3noc(COCC4(c5ccc(Cl)cc5)CCC4)n3)c(F)c2)C1` [Example 143, 1-(4-(5-(((1-(4-chlorophenyl)cyclobutyl)methoxy)methyl)-1,2,4-oxadiazol-3-yl)-3-fluorobenzyl)-3-azetidinecarboxylic acid] has an IC50 (S1P1 [1]) of 9.72 nM, an EC50 (S1P1 [2]) of 17.5 nM and an EC50 (S1P3) of 3730 nM.
